Test system: A549 tumor cells
Test: A549 subcutaneous mouse xenograft model, GRN163L and/or gemcitabine
Assay type: in vivo, mice
Details: A549 s.c. xenograft, 60 days; gemcitabine 100 mg/kg IP, GRN163L 15 mg/kg IP
Protocol: In one exemplary method, gemcitabine is administered in combination with a telomerase-inhibitor oligonucleotide targeted against hTR. […] Groups of 10 mice each were treated in accordance with one of three protocols: (1) Gemcitabine (100 mg/kg, IP) was administered 2 times/week for the first 1.5 weeks, then once weekly for the remainder of the study. […] (3) The two agents were administered together according to the individual-agent protocols.

## Cl.Nc1ccn([C@@H]2O[C@H](CO)[C@@H](O)C2(F)F)c(=O)n1 (single isomer, unassigned) [gemcitabine, 2′-deoxy-2′,2′-difluorocytidine monohydrochloride ((beta)-isomer)]
  tumor growth during the treatment period: effective in preventing tumor growth
